Assay results: US20240317735A1, “HYDROISOQUINOLINE OR HYDRONAPHTHYRIDINE COMPOUNDS FOR THE TREATMENT OF AUTOIMMUNE DISEASE” (Hoffmann-La Roche Inc., priority 2020, published 2024)

Biological target: T1, human TLR8 (Homo sapiens, UniProt Q9NR97)
T1 construct: host or cells: HEK293 (HEK-Blue hTLR8)
T1 sequence (Q9NR97 27-1041): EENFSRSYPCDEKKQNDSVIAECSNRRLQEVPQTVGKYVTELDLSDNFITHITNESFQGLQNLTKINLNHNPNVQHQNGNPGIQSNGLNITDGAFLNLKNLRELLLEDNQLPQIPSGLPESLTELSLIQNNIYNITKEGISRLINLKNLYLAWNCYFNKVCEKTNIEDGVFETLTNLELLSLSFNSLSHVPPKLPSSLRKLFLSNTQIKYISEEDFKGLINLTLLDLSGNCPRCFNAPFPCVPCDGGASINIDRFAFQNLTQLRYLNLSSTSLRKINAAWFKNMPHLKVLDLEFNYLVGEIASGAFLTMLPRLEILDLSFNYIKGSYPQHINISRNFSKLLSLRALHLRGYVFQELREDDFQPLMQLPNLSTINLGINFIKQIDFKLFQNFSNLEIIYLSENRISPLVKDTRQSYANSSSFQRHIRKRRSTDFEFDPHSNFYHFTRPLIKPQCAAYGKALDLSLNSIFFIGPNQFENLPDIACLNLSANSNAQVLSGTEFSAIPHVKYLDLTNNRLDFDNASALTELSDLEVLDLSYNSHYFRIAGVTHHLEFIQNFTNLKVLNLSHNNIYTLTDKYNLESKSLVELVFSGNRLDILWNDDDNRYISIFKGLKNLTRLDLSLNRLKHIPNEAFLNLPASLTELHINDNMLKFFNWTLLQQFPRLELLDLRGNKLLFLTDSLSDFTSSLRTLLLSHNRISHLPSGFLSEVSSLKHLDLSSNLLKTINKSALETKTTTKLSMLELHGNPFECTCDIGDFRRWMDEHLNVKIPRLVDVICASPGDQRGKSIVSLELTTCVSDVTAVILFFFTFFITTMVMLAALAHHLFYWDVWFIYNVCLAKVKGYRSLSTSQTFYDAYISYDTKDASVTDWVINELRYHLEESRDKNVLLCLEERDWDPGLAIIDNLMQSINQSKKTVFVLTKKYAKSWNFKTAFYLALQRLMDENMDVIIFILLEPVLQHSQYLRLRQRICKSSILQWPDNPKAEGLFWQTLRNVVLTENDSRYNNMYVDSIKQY
Experiment: HEK293-Blue-hTLR-8 cells assay (SEAP reporter, R848 stimulation)
Assay type: cell-based
Details: HEK293-Blue-hTLR8 cells, R848, 20 hrs; read-out: HEK/hTLR8 IC50
Experimental: The following tests were carried out in order to determine the activity of the compounds of formula (I) and (Ia) in HEK293-Blue-hTLR-7/8/9 cells assay.
A stable HEK293-Blue-hTLR-8 cell line was purchased from InvivoGen (Cat. #: hkb-htlr8, San Diego, California, USA). These cells were originally designed for studying the stimulation of human TLR8 by monitoring the activation of NF-κB. A SEAP (secreted embryonic alkaline phosphatase) reporter gene was placed under the control of the IFN-β minimal promoter fused to five NF-κB and AP-1-binding sites. The SEAP was induced by activating NF-κB and AP-1 via stimulating HEK-Blue hTLR8 cells with TLR8 ligands. Therefore the reporter expression was declined by TLR8 antagonist under the stimulation of a ligand, such as R848, for incubation of 20 hrs. The cell culture supernatant SEAP reporter activity was determined using QUANTI-Blue™ kit (Cat. #: rep-qb1, Invivogen, San Diego, Ca, USA) at a wavelength of 640 nm, a detection medium that turns purple or blue in the presence of alkaline phosphatase.
HEK293-Blue-hTLR8 cells were incubated at a density of 250,000˜450,000 cells/mL in a volume of 170 μL in a 96-well plate in Dulbecco's Modified Eagle's medium (DMEM) containing 4.5 g/L glucose, […] penicillin, […], […] Normocin, 2 mM L-glutamine, 10% (v/v) heat-inactivated fetal bovine serum with addition of 20 μL test compound in a serial dilution in the presence of final DMSO at 1% and 10 μL of 60 uM R848 in above DMEM, perform incubation under 37° C. in a C02 incubator for 20 hrs. Then 20 μL of the supernatant from each well was incubated with 180 μL Quanti-blue substrate solution at 37° C. for 2 hrs and the absorbance was read at 620-655 nm using a spectrophotometer. The signaling pathway that TLR8 activation leads to downstream NF-κB activation has been widely accepted, and therefore similar reporter assay was modified for evaluating TLR8 antagonist.

Row | IC50 | SMILES
1 | 17 nM | Cc1cc(N2Cc3ccc(N4CC5(CNCCO5)C4)nc3[C@@H](C)C2)c2cnn(C)c2n1 [Example 68, 2-[(8S)-6-(1,6-dimethylpyrazolo[3,4-b]pyridin-4-yl)-8-methyl-7,8-dihydro-5H-1,6-naphthyridin-2-yl]-5-oxa-2,8-diazaspiro[3.5]nonane]
2 | 8 nM | C[C@H]1CN(c2ccnc3c2cnn3C)Cc2ccc(OC3CN(C4CCNCC4)C3)cc21 [Example 41, (4R)-4-methyl-2-(1-methylpyrazolo[3,4-b]pyridin-4-yl)-6-[1-(4-piperidyl)azetidin-3-yl]oxy-3,4-dihydro-1H-isoquinoline]
3 | 34 nM | Cc1cc(N2Cc3cnc(N4CC[C@@H](N)[C@H](F)C4)cc3[C@@H](C)C2)c2cnn(C)c2n1 [Example 80, (3R,4R)-3-fluoro-1-[(5R)-7-(1,6-dimethylpyrazolo[3,4-b]pyridin-4-yl)-5-methyl-6,8-dihydro-5H-2,7-naphthyridin-3-yl]piperidin-4-amine]
4 | 1 nM | CO[C@H]1CN(c2ccc3c(n2)[C@@H](C)CN(c2cc(C)nc4c2cnn4C)C3)CC[C@@H]1N [Example 65, (3S,4S)-3-methoxy-1-[(8S)-6-(1,6-dimethylpyrazolo[3,4-b]pyridin-4-yl)-8-methyl-7,8-dihydro-5H-1,6-naphthyridin-2-yl]piperidin-4-amine]
5 | 7 nM | C[C@H]1CN(c2ccnc3c2cnn3C)Cc2ccc(N3C[C@H]4CCNC[C@H]4C3=O)cc21 (single isomer, unassigned) [Example 56]
6 | 9 nM | Cc1cc(N2Cc3ccc(N4C[C@@H](F)[C@@H](N)C4)nc3[C@@H](C)C2)c2cnn(C)c2n1 [Example 69, (3S,4R)-4-fluoro-1-[(8S)-6-(1,6-dimethylpyrazolo[3,4-b]pyridin-4-yl)-8-methyl-7,8-dihydro-5H-1,6-naphthyridin-2-yl]pyrrolidin-3-amine]
7 | < 0.3 nM | C[C@H]1CN(c2ccnc3c2cnn3C)Cc2ccc(N3C[C@@H]4CNCCN4C3=O)cc21 [Example 25, (8aS)-2-[(4R)-4-methyl-2-(1-methylpyrazolo[3,4-b]pyridin-4-yl)-3,4-dihydro-1H-isoquinolin-6-yl]-1,5,6,7,8,8a-hexahydroimidazo[1,5-a]pyrazin-3-one]
8 | 16 nM | Cc1cc(N2Cc3cnc(O[C@@H]4C[C@H]5CNCCN5C4)cc3[C@@H](C)C2)c2cnn(C)c2n1 [Example 76, (4R)-2-(1,6-dimethylpyrazolo[3,4-b]pyridin-4-yl)-4-methyl-6-[[(7R,8aS)-1,2,3,4,6,7,8,8a-octahydropyrrolo[1,2-a]pyrazin-7-yl]oxy]-3,4-dihydro-1H-2,7-naphthyridine]
9 | 13 nM | Cc1cc(N2Cc3cnc(N4CCNC5(CC5)C4)cc3[C@@H](C)C2)c2cnn(C)c2n1 [Example 75, (4R)-6-(4,7-diazaspiro[2.5]octan-7-yl)-2-(1,6-dimethylpyrazolo[3,4-b]pyridin-4-yl)-4-methyl-3,4-dihydro-1H-2,7-naphthyridine]
10 | 0.4 nM | Cc1cc(N2Cc3ccc(N4CCC(N)CC4)nc3[C@@H](C)C2)c2cnn(C)c2n1 [Example 58, 1-[(8S)-6-(1,6-dimethylpyrazolo[3,4-b]pyridin-4-yl)-8-methyl-7,8-dihydro-5H-1,6-naphthyridin-2-yl]piperidin-4-amine]
11 | 24 nM | C[C@H]1CN(c2ccnc3c2cnn3C)Cc2ccc(N3C[C@@H]4CCNC[C@@H]4C3=O)cc21 (single isomer, unassigned) [Example 57]
12 | 2 nM | Cc1cc(N2Cc3ccc(OC[C@@H]4CNCCN4)cc3[C@@H](C)C2)c2cnn(C)c2n1 [Example 31, (4R)-2-(1,6-dimethylpyrazolo[3,4-b]pyridin-4-yl)-4-methyl-6-[[(2S)-piperazin-2-yl]methoxy]-3,4-dihydro-1H-isoquinoline]

Further lines, the molecule ahead of its results:

Row | SMILES | IC50
13 | C[C@H]1CN(c2ccnc3c2cnn3C)Cc2ccc(OC[C@H]3CNCCN3)cc21 [Example 18, (4R)-4-methyl-2-(1-methylpyrazolo[3,4-b]pyridin-4-yl)-6-[[(2R)-piperazin-2-yl]methoxy]-3,4-dihydro-1H-isoquinoline] | 4 nM
14 | CCn1ncc2c(N3Cc4ccc(N5CCNCC5)cc4[C@@H](C)C3)ccnc21 [Example 22, (4R)-2-(1-ethylpyrazolo[3,4-b]pyridin-4-yl)-4-methyl-6-piperazin-1-yl-3,4-dihydro-1H-isoquinoline] | 16 nM
15 | C[C@H]1CN(c2ccnc3c2cnn3C)Cc2ccc(N3CC4(CNCCO4)C3)cc21 [Example 21, 2-[(4R)-4-methyl-2-(1-methylpyrazolo[3,4-b]pyridin-4-yl)-3,4-dihydro-1H-isoquinolin-6-yl]-5-oxa-2,8-diazaspiro[3.5]nonane] | 14 nM
16 | C[C@H]1CN(c2ccnc3c2cnn3C)Cc2ccc(N3CCN(c4cc5c(cn4)CCNC5)CC3)cc21 [Example 9, 7-[4-[(4R)-4-methyl-2-(1-methylpyrazolo[3,4-b]pyridin-4-yl)-3,4-dihydro-1H-isoquinolin-6-yl]piperazin-1-yl]-1,2,3,4-tetrahydro-2,6-naphthyridine] | 11 nM
17 | C[C@H]1CN(c2ccnc3c2cnn3C)Cc2ccc(N3CCC(N4CC(N)C4)CC3)cc21 [Example 28, 1-[1-[(4R)-4-methyl-2-(1-methylpyrazolo[3,4-b]pyridin-4-yl)-3,4-dihydro-1H-isoquinolin-6-yl]-4-piperidyl]azetidin-3-amine] | < 0.3 nM
18 | C[C@H]1CN(c2ccnc3c2cnn3C)Cc2ccc(N3CC4(CCNC4)OC3=O)cc21 (stereo partly drawn) [Example 35, 3-[(4R)-4-methyl-2-(1-methylpyrazolo[3,4-b]pyridin-4-yl)-3,4-dihydro-1H-isoquinolin-6-yl]-1-oxa-3,7-diazaspiro[4.4]nonan-2-one] | 14 nM
19 | C[C@H]1CN(c2ccnc3c2cnn3C)Cc2ccc(N3CC4(CCNCC4)CC3=O)cc21 [Example 16, 2-[(4R)-4-methyl-2-(1-methylpyrazolo[3,4-b]pyridin-4-yl)-3,4-dihydro-1H-isoquinolin-6-yl]-2,8-diazaspiro[4.5]decan-3-one] | 4 nM
20 | CC1CN(c2ccnc3c2cnn3C)Cc2ccc(N3CCC4(CCNCC4)CC3)cc21 (centres unmarked) [Example 4, 3-[4-methyl-2-(1-methylpyrazolo[3,4-b]pyridin-4-yl)-3,4-dihydro-1H-isoquinolin-6-yl]-3,9-diazaspiro[5.5]undecane] | 7 nM
21 | C[C@H]1CN(c2ccnc3c2cnn3C)Cc2ccc(N3CCNCC3)cc21 [Example 1, (4R)-4-methyl-2-(1-methylpyrazolo[3,4-b]pyridin-4-yl)-6-piperazin-1-yl-3,4-dihydro-1H-isoquinoline] | 2 nM
22 | C[C@H]1CN(c2ccnc3c2cnn3C)Cc2ccc(N3CCNC(CO)C3)cc21 (stereo partly drawn) [Example 49, [4-[(4R)-4-methyl-2-(1-methylpyrazolo[3,4-b]pyridin-4-yl)-3,4-dihydro-1H-isoquinolin-6-yl]piperazin-2-yl]methanol] | 2 nM
23 | C[C@H]1CN(c2ccnc3c2cnn3C)Cc2ccc(N3CCNCC3)nc21 [Example 62, (8S)-8-methyl-6-(1-methylpyrazolo[3,4-b]pyridin-4-yl)-2-piperazin-1-yl-7,8-dihydro-5H-1,6-naphthyridine] | 2 nM
